pIC50: −log10 of the molar value.
Tests used:
Assay type in all cases: cell-based
[1] = target: T1, EGFR WT (Homo sapiens, UniProt P00533); test: Activity for inhibiting EGFR (Table A), EGFR WT; settings: read-out: EGFR WT, potency code (IC50)
[2] = target: T2, EGFR V3 (Homo sapiens, UniProt P00533, DELINS30-297G); test: Activity for inhibiting EGFR (Table A), EGFR V3 (EGFR-Viii); settings: read-out: EGFR V3, potency code (IC50)
T2 construct: expressed in transfected cells; host or cells: BaF3 (murine pro-B), retroviral pMXs-IRES-Blasticidin

[3] = target: T3, HER2 WT (Homo sapiens, UniProt P04626); test: Activity for inhibiting HER2 (Table B), HER2 WT
[4] = target: T4, HER2 S310F (Homo sapiens, UniProt P04626, S310F); test: Activity for inhibiting HER2 (Table B), HER2 S310F; settings: read-out: HER2 S310F, potency code (IC50)
T4 construct: expressed in transfected cells; host or cells: BaF3 (murine pro-B)
Procedure: (§1) EC50 values were determined with the same application.

[5] = target: T1, EGFR WT; test: BaF3 cell proliferation assay, EGFR WT (Table A); settings: potency code, 3 days, CellTiterGlo, read-out: EGFR WT (Activity for Inhibiting EGFR)
In short: (§2)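 Readout: EC50 for BaF3 proliferation. Cells stably expressing the receptor variant were generated by retrovirus and IL-3 independence.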

[6] = target: T2, EGFR V3; test: BaF3 cell proliferation assay, EGFR V3 (Table A); settings: potency code, 3 days, CellTiterGlo, read-out: EGFR V3 (Activity for Inhibiting EGFR)
In short: as §2

[7] = target: T3, HER2 WT; test: BaF3 cell proliferation assay, HER2 WT (Table B); settings: potency code, 3 days, CellTiterGlo, read-out: HER2 WT (Activity for Inhibiting HER2)
[8] = target: T4, HER2 S310F; test: BaF3 cell proliferation assay, HER2 S310F (Table B); settings: potency code, 3 days, CellTiterGlo, read-out: HER2 S310F (Activity for Inhibiting HER2)
[9] = target: T5, HER2 YVMA (Homo sapiens, UniProt P04626, INS775YVMA); test: Activity for inhibiting HER2 (Table B), HER2 YVMA; settings: read-out: HER2 YVMA, potency code (IC50)
T5 construct: expressed in transfected cells; host or cells: BaF3 (murine pro-B)
Procedure: as §1

[10] = target: T5, HER2 YVMA; test: BaF3 cell proliferation assay, HER2 YVMA (Table B); settings: potency code, 3 days, CellTiterGlo, read-out: HER2 YVMA (Activity for Inhibiting HER2)
[11] = Table B, read-out: HER2 WT, potency code (IC50)
[12] = text lists of compounds, read-out: IC50 value for inhibiting wild-type HER2

T3 sequence (P04626 23-1255): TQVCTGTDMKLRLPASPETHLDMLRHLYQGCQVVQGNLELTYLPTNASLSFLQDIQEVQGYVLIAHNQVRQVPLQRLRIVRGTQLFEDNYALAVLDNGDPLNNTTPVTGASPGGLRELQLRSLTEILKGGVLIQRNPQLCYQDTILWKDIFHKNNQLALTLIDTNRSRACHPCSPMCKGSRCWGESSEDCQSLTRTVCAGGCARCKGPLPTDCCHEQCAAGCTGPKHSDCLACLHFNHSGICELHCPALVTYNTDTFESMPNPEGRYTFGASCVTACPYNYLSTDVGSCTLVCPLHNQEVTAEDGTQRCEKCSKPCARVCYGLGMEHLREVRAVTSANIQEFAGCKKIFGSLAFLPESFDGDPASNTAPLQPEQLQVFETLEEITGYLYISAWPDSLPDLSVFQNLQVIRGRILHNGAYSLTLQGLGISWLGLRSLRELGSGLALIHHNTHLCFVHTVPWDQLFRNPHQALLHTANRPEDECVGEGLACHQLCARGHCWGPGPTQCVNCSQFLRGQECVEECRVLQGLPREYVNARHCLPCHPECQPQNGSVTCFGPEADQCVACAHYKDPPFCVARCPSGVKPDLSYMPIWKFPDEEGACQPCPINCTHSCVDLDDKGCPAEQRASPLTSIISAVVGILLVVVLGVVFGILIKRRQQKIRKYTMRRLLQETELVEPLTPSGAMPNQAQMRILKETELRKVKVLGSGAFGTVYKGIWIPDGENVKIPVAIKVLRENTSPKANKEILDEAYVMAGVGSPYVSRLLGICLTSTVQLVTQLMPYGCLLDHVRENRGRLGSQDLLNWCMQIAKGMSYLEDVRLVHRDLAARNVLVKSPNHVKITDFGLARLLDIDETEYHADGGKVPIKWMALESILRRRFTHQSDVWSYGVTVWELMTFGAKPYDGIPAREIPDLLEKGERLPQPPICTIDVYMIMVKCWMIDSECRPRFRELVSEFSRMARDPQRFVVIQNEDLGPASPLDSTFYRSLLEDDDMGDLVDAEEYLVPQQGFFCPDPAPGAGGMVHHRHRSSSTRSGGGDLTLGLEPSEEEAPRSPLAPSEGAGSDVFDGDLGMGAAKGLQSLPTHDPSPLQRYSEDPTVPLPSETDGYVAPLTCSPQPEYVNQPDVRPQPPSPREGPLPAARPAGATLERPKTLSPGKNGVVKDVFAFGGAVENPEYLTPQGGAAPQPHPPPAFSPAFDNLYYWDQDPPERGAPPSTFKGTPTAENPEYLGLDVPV
T2 sequence (P00533 with tags, fused parts or gaps DELINS30-297G): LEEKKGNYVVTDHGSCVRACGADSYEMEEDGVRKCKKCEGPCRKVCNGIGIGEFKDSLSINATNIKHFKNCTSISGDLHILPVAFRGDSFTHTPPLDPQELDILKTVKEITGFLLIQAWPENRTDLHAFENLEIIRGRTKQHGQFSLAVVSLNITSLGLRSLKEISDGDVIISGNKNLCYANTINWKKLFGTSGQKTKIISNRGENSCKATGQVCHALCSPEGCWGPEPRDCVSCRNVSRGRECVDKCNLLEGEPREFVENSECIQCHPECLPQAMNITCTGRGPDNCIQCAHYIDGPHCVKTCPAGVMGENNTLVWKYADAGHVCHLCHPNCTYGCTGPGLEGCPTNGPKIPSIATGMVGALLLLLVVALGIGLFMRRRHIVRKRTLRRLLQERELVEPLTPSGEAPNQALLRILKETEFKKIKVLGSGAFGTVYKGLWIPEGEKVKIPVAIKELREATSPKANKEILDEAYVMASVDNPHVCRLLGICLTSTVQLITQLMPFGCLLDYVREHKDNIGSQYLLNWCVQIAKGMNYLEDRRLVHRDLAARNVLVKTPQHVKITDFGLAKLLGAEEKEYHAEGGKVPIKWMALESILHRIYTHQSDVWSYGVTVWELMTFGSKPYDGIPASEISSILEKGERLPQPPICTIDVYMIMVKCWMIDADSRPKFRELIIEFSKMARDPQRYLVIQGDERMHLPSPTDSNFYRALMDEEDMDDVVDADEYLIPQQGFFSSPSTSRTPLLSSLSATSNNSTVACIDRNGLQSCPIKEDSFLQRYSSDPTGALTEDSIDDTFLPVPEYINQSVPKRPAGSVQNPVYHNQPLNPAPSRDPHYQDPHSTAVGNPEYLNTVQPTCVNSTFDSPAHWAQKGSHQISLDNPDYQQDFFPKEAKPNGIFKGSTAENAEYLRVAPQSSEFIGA
T4 sequence (P04626 23-1255 S310F): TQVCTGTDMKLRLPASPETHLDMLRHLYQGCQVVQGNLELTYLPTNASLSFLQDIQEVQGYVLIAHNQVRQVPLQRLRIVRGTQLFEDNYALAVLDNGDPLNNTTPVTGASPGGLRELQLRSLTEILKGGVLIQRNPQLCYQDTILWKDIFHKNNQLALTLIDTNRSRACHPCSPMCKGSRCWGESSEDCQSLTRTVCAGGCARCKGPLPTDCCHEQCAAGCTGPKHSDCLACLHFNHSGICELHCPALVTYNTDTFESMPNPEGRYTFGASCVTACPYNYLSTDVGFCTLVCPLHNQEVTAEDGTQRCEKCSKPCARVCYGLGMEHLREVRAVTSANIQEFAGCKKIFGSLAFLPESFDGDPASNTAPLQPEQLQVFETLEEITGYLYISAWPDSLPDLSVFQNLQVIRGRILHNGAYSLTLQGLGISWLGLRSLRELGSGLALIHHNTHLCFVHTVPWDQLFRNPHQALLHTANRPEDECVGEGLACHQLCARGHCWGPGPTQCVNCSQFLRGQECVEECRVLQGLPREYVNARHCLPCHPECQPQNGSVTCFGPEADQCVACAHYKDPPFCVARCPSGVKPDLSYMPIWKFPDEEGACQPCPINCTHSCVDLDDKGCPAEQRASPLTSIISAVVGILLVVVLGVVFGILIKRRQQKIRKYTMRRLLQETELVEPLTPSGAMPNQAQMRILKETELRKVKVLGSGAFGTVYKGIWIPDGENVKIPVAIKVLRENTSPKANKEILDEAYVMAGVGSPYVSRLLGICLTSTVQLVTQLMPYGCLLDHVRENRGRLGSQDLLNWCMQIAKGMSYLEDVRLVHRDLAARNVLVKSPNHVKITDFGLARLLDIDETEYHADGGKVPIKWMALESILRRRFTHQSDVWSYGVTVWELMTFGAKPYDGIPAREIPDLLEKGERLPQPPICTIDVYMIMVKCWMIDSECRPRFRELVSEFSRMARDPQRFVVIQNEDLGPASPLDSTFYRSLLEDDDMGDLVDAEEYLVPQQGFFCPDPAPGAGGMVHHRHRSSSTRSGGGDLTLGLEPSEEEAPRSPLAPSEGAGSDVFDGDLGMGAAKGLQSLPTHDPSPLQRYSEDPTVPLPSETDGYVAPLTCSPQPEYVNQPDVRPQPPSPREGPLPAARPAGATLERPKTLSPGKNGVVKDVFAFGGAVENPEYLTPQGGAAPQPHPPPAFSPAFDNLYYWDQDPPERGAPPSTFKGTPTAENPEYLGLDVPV
T5 sequence (P04626 with tags, fused parts or gaps INS775YVMA): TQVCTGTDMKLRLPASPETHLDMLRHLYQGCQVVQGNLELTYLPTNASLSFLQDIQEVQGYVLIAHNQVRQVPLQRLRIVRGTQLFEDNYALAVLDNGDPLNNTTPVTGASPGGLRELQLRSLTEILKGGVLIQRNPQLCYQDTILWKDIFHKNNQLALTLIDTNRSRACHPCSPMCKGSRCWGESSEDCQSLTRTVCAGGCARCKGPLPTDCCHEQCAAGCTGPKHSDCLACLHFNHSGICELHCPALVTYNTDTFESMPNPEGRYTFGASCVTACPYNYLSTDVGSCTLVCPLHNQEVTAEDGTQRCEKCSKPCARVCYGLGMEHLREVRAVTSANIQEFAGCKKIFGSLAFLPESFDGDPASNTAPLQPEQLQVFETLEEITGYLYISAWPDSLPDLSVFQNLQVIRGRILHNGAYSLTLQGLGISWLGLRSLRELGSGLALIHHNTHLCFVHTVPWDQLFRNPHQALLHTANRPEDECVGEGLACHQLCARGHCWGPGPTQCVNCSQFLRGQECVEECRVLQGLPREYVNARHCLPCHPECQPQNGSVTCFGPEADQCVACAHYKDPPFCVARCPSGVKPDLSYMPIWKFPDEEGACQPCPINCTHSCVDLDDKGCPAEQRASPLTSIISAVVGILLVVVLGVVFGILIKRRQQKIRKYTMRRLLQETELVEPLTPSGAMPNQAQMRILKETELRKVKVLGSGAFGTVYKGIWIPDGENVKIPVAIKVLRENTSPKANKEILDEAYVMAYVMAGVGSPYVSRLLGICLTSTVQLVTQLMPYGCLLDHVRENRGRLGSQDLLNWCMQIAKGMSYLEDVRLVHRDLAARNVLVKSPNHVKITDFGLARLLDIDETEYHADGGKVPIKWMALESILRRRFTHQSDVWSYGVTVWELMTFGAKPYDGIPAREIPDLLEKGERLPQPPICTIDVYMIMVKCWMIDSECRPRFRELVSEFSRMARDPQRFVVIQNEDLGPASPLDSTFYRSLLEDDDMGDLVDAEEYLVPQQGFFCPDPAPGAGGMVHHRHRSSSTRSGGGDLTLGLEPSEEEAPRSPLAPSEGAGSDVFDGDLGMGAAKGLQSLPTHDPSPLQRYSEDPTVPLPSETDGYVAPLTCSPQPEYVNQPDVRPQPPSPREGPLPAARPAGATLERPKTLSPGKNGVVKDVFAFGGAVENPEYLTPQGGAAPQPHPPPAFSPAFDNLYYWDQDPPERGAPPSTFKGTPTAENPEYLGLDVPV

Structure (SMILES)	pIC50 [1]	pIC50 [2]	pIC50 [3, 11]	pIC50 [3, 12]	pIC50 [4]	pIC50 [5]	pIC50 [6]	pIC50 [7]	pIC50 [8]	pIC50 [9]	pIC50 [10]
CC#CC(=O)Nc1cc2c(Nc3ccc(OCc4ccccn4)c(Cl)c3)ncnc2cc1N(C)CCN1CCOCC1 [compound 4]	6.52 to 6.70	7.00 to 7.30	7.52 to 7.70	≥ 7.30	7.00 to 7.30	6.52 to 6.70	7.00 to 7.30	7.52 to 7.70	7.00 to 7.30		
C=CC(=O)Nc1cc2c(Nc3ccc(OCc4ccccn4)c(Cl)c3)ncnc2cc1N(C)CCN1CCOCC1 [compound 7]	< 6.00	6.70 to 7.00	6.70 to 7.00		6.52 to 6.70	< 6.00	6.70 to 7.00	6.70 to 7.00	6.52 to 6.70		
C=CC(=O)Nc1cc2c(Nc3ccc(OCc4ccccn4)cc3)ncnc2cc1OCCn1ccnc1 [compound 9]	6.00 to 6.30	7.00 to 7.30	7.70 to 8.00	≥ 7.70	6.70 to 7.00	6.00 to 6.30	7.00 to 7.30	7.70 to 8.00	6.70 to 7.00		
C=CC(=O)Nc1cc2c(Nc3ccc(OCc4ccccn4)c(Cl)c3)ncnc2cc1OCCn1ccnc1 [compound 10]	< 6.00	7.00 to 7.30	7.70 to 8.00	≥ 7.70	7.52 to 7.70	< 6.00	7.00 to 7.30	7.70 to 8.00	7.52 to 7.70	6.52 to 6.70	6.52 to 6.70
C=CC(=O)Nc1cc2c(Nc3ccc(OCc4ccccn4)c(Cl)c3)ncnc2cc1N(C)CCCN1CCOCC1 [compound 12]	6.00 to 6.30	6.70 to 7.00	7.00 to 7.30		6.70 to 7.00	6.00 to 6.30	6.70 to 7.00	7.00 to 7.30	6.70 to 7.00		
C=CC(=O)Nc1cc2c(Nc3ccc(OCc4ccccn4)c(Cl)c3)ncnc2cc1OCC1CCCN1C (centres unmarked) [compound 14]	6.30 to 6.52	7.30 to 7.52	7.70 to 8.00	≥ 7.70	7.00 to 7.30	6.30 to 6.52	7.30 to 7.52	7.70 to 8.00	7.00 to 7.30		
C=CC(=O)Nc1cc2c(Nc3ccc(OCc4ccccn4)c(Cl)c3)ncnc2cc1OC1CCNC1 (centres unmarked) [compound 15]	6.30 to 6.52	6.52 to 6.70	7.70 to 8.00	≥ 7.70	6.70 to 7.00	6.30 to 6.52	6.52 to 6.70	7.70 to 8.00	6.70 to 7.00		
C=CC(=O)Nc1cc2c(Nc3ccc(OCc4ccccn4)c(Cl)c3)ncnc2cc1OC1CCN(C)C1 (centres unmarked) [compound 16]	6.52 to 6.70	7.52 to 7.70	> 8.30	≥ 8.30	7.52 to 7.70	6.52 to 6.70	7.52 to 7.70	> 8.30	7.52 to 7.70	7.30 to 7.52	7.30 to 7.52
C=CC(=O)Nc1cc2c(Nc3ccc(OCc4ccccn4)c(Cl)c3)ncnc2cc1O[C@H]1CCN(C)C1 [compound 18]	6.30 to 6.52	7.52 to 7.70	8.00 to 8.30	≥ 8.00	7.52 to 7.70	6.30 to 6.52	7.52 to 7.70	8.00 to 8.30	7.52 to 7.70	7.00 to 7.30	7.00 to 7.30
C=CC(=O)Nc1cc2c(Nc3ccc(OCc4cccc(C(F)(F)F)n4)c(Cl)c3)ncnc2cc1OCCN1CCOCC1 [compound 23]	< 6.00	6.70 to 7.00	6.70 to 7.00		6.70 to 7.00	< 6.00	6.70 to 7.00	6.70 to 7.00	6.70 to 7.00		
C=CC(=O)Nc1cc2c(Nc3ccc(OCc4ccccn4)c(Cl)c3)ncnc2cc1OCCN1CCC(OC)C1 (centres unmarked) [compound 29]	6.30 to 6.52	7.52 to 7.70	> 8.30	≥ 8.30	7.70 to 8.00	6.30 to 6.52	7.52 to 7.70	> 8.30	7.70 to 8.00	7.00 to 7.30	7.00 to 7.30
C=CC(=O)Nc1cc2c(Nc3ccc(OCc4ccccn4)c(Cl)c3)ncnc2cc1OCCN1CCC(O)C1 (centres unmarked) [compound 30]		7.30 to 7.52	> 8.30	≥ 8.30	7.70 to 8.00	6.30 to 6.52	7.30 to 7.52	> 8.30	7.70 to 8.00	6.70 to 7.00	6.70 to 7.00
C=CC(=O)Nc1cc2c(Nc3ccc(OCc4ccccn4)c(Cl)c3)ncnc2cc1OCCN(C)CC [compound 32]	6.30 to 6.52	7.52 to 7.70	> 8.30	≥ 8.30	7.70 to 8.00	6.30 to 6.52	7.52 to 7.70	> 8.30	7.70 to 8.00	7.00 to 7.30	7.00 to 7.30
C=CC(=O)Nc1cc2c(Nc3ccc(OCc4ccccn4)c(Cl)c3)ncnc2cc1OCCN1CC(F)C1 [compound 34]	6.00 to 6.30	7.30 to 7.52	7.70 to 8.00	≥ 7.70	7.70 to 8.00	6.00 to 6.30	7.30 to 7.52	7.70 to 8.00	7.70 to 8.00	7.00 to 7.30	7.00 to 7.30
C=CC(=O)Nc1cc2c(Nc3ccc(Oc4cccc(Cl)c4)cc3)ncnc2cc1OCCN1CCOCC1 [compound 37]	< 6.00	6.70 to 7.00	7.00 to 7.30		7.00 to 7.30	< 6.00	6.70 to 7.00	7.00 to 7.30	7.00 to 7.30		
C=CC(=O)Nc1cc2c(Nc3ccc(OCc4ccccn4)c(Cl)c3)ncnc2cc1OCCN1CC2(COC2)C1 [compound 38]	6.30 to 6.52	7.30 to 7.52	8.00 to 8.30	≥ 8.00	7.52 to 7.70	6.30 to 6.52	7.30 to 7.52	8.00 to 8.30	7.52 to 7.70	7.00 to 7.30	7.00 to 7.30
C=CC(=O)Nc1cc2c(Nc3ccc(OCc4ccccn4)c(Cl)c3)ncnc2cc1N1CCN2CCC1C2 (centres unmarked) [compound 43]	< 6.00	6.70 to 7.00	7.00 to 7.30		6.70 to 7.00	< 6.00	6.70 to 7.00	7.00 to 7.30	6.70 to 7.00		
C=CC(=O)Nc1cc2c(Nc3ccc(OCc4ccccn4)c(Cl)c3)ncnc2cc1N1CC(N2CCOCC2)C1 [compound 44]	6.30 to 6.52	6.70 to 7.00	7.00 to 7.30		6.30 to 6.52	6.30 to 6.52	6.70 to 7.00	7.00 to 7.30	6.30 to 6.52		
C=CC(=O)Nc1cc2c(Nc3ccc(OCc4ccccn4)c(Cl)c3)ncnc2cc1N1CCC2(CCN(C)C2)C1 (centres unmarked) [compound 46]	6.30 to 6.52	7.00 to 7.30	7.52 to 7.70	≥ 7.30	6.70 to 7.00	6.30 to 6.52	7.00 to 7.30	7.52 to 7.70	6.70 to 7.00		
C=CC(=O)Nc1cc2c(Nc3ccc(OCc4ccccn4)c(Cl)c3)ncnc2cc1N(C)C1CCN(C)C1 (centres unmarked) [compound 48]	< 6.00	6.52 to 6.70	6.70 to 7.00		6.30 to 6.52	< 6.00	6.52 to 6.70	6.70 to 7.00	6.30 to 6.52		
C=CC(=O)Nc1cc2c(Nc3ccc(OCc4ccccn4)c(Cl)c3)ncnc2cc1N1CC2CCN(C)C2C1 (centres unmarked) [compound 49]	< 6.00	6.70 to 7.00	7.00 to 7.30		6.70 to 7.00	< 6.00	6.70 to 7.00	7.00 to 7.30	6.70 to 7.00		
C=CC(=O)Nc1cc2c(Nc3ccc(OCc4ccccn4)cn3)ncnc2cc1OCCN1CCOCC1 [compound 58]	< 6.00	6.52 to 6.70	6.70 to 7.00		6.30 to 6.52	< 6.00	6.52 to 6.70	6.70 to 7.00	6.30 to 6.52		
C=CC(=O)Nc1cc2c(Nc3ccc(OCc4ccccn4)cc3F)ncnc2cc1OC1CCN(C)C1 (centres unmarked) [compound 59]	6.30 to 6.52	7.30 to 7.52	7.30 to 7.52	≥ 7.30	6.70 to 7.00	6.30 to 6.52	7.30 to 7.52	7.30 to 7.52	6.70 to 7.00		
C=CC(=O)Nc1cc2c(Nc3ccc(Oc4ccc(Cl)cc4)cc3)ncnc2cc1OCCN1CCOCC1 [compound 74]	< 6.00	7.00 to 7.30	6.70 to 7.00		6.52 to 6.70	< 6.00	7.00 to 7.30	6.70 to 7.00	6.52 to 6.70		

Reference: patent publication US11034672B1, “Tyrosine kinase inhibitor compositions, methods of making and methods of use” (Black Diamond Therapeutics, Inc., priority 2018, dated 2021)
